This note sets out measurements from publication PMC10581251, “Antisense inhibition of RNA polymerase α subunit of Clostridioides difficile” (Microbiology Spectrum, 2023).

The test system of assay [1] is C. difficile ATCC BAA 1870. Put plainly: MIC/MBC broth microdilution, C. difficile ATCC BAA 1870. It is filed as cell-based, Clostridioides difficile. As to the method:
(§1) The susceptibility of C. difficile isolates to the CPP-PNA conjugates or to the CPP alone was determined in vitro as described before with slight modifications ([43] [–] [45]). Briefly, the CPP-PNA conjugates, the CPP alone, and the antibiotics vancomycin and fidaxomicin were added in triplicate to the first row of ultra-low adhesion 96-well plates (Corning Inc., Corning, NY). A suspension of C. difficile equivalent to 0.5 McFarland solution was added to Mueller-Hilton II broth, which was then added to the ultra-low adhesion plate and then serially diluted. The plates were incubated anaerobically for 48 hours at 37°C. The minimum inhibitory concentration was defined as the lowest concentration of the CPP-PNA conjugate that could inhibit bacterial growth when observed visually.
(§2) The MIC and MBC experiments were repeated twice.

Assay [2] has as its system C. difficile 1079. Put plainly: MIC/MBC broth microdilution, C. difficile 1079. It is filed as cell-based, Clostridioides difficile. Here is the method: as §1, §2
The test system of assay [3] is C. difficile ATCC BAA 1870. Description: Effect of pH on MIC/MBC, C. difficile ATCC BAA 1870. It is filed as cell-based, Clostridioides difficile. The note with it: Clostridioides difficile. As to the method:
as §1, §2
(§3) The susceptibility of C. difficile (ATCC 630 and ATCC BAA 1870) to the rpoA-TAT conjugate was evaluated over a pH range of 6 to 9 using the broth microdilution method ([43], [46] [–] [48]). The desired pH for susceptibility testing was attained by the addition of either 0.1 N HCL or 1 N NaOH to the media. The experiment was repeated twice.

Assay [4] has as its system Lactobacillus gasseri ATCC 19992. Description: MIC gut microflora, Lactobacillus gasseri. It is filed as cell-based. Here is the method:
(§4) The susceptibility of gut microflora strains to the rpoA-TAT conjugate was determined using the broth microdilution assay, as described above. Briefly, bacterial suspensions of Bifidobacterium sp. and Bacteroides sp., in supplemented BHIS broth, and Lactobacilli strains, in MRS broth, were added to ultra-low adhesion 96-well plates and serially diluted. The MIC was recorded after 48 hours.

Assay [5] concerns Lactobacillus brevis ATCC 14869. Description: MIC gut microflora, Lactobacillus brevis. It is filed as cell-based. The note with it: Levilactobacillus brevis, ATCC14869, 48 h. Here is the method: as §4
The subject of assay [6] is Lactobacillus rhamnosus ATCC 53103. Description: MIC gut microflora, Lactobacillus rhamnosus. It is filed as cell-based. The note with it: Lacticaseibacillus rhamnosus, ATCC53103, 48 h. Here is the method:
as §4

For assay [7], the system named is Bifidobacterium longum subsp. longum HM 846. Put plainly: MIC gut microflora, Bifidobacterium longum. It is filed as cell-based. As to the method:
as §4

Assay [8] concerns C. difficile ATCC 630. Description: Effect of pH on MIC/MBC, C. difficile ATCC 630. It is filed as cell-based, Clostridioides difficile. The note with it: Clostridioides difficile. As to the method:
as §1, §2, §3

Assay [9] concerns C. difficile 630. Description: Killing kinetics (time-kill assay). It is filed as cell-based, Clostridioides difficile. To be noted: 1× MIC, within 24 hours of incubation, inoculum ~5 × 10^5 CFU/mL. As to the method:
The killing kinetics of the PNA construct was determined as described previously ([45] [–] [47]). Briefly, an overnight culture of C. difficile 630 was diluted 1:50 into fresh Mueller Hilton II broth (~10^5 CFU/mL) and added in triplicate to low adhesion microcentrifuge tubes containing either sterile water, the rpoA-TAT construct (1× MIC), or the positive controls vancomycin or fidaxomicin (1× MIC). The number of viable bacteria in each treatment group was determined by taking aliquots at 0, 4, 8, 12, 16, and 24 hours; these aliquots were then serially diluted and plated on BHIS agar plates. The plates were incubated anaerobically, and the number of colony-forming units for each treatment group was recorded the following day. The experiment was repeated twice.

For assay [10], the system named is C. difficile 1071. Description: MIC/MBC broth microdilution, C. difficile 1071. It is filed as cell-based, Clostridioides difficile. As to the method:
as §1, §2
For orientation: Broth dilution looks for growth in wells or tubes with falling amounts of substance.

For assay [11], the system named is C. difficile ATCC 43255. Put plainly: MIC/MBC broth microdilution, C. difficile ATCC 43255. It is filed as cell-based, Clostridioides difficile. As to the method:
as §1, §2

Assay [12] has as its system toxin A and toxin B production by C. difficile 630. Put plainly: Toxin production inhibition (ELISA). It is filed as cell-based, Clostridioides difficile. To be noted: sub-inhibitory concentrations 0.125×, 0.25×, 0.5× MIC, 8 hours, ELISA. Here is the method: After the incubation period, the bacterial count in each treatment group was determined by serial dilution and plating. Toxin content in the supernatant of each treatment group was determined using an enzyme-linked immunosorbent assay (ELISA, tgcBIOMICS) kit, as per the manufacturer’s protocol.
A general note: An ELISA detects its analyte on a solid surface through an enzyme-linked reagent.

The test system of assay [13] is C. difficile 630. Description: Effect of high bacterial inoculum on activity. The note with it: 8 hours. It is filed as cell-based, Clostridioides difficile. As to the method: The in vitro efficacy of the PNA constructs against a high inoculum size of C. difficile 630 was determined. Briefly, the PNA constructs and control antibiotics, at a concentration of 1× MIC, were added in triplicate to low adhesion microcentrifuge tubes (Corning Inc., Corning, NY). A high inoculum of C. difficile suspension equivalent to ~5 × 10^6 and ~5 × 10^7 cells was added to the tubes, which were incubated anaerobically at 37°C. The number of viable bacteria in each treatment group was determined by serial dilution and plating on BHIS agar plates at 8 hours and 24 hours post-incubation, respectively. The effect of a high inoculum on the activity of the PNA construct was repeated twice.

In assay [14] the test system is C. difficile ATCC 630. Put plainly: microbe, parasite or virus in culture. Here is the method:
as §1, §2

In assay [15] the test system is spore formation by C. difficile ATCC 630. Put plainly: Spore formation inhibition. It is filed as cell-based, Clostridioides difficile. To be noted: 0.5× MIC, 12 hours. Here is the method: After the incubation period, the total bacterial count for each treatment group was determined by serial dilution and plating on BHIS agar plates supplemented with 0.1% taurocholic acid. To determine the presence of spores, the remaining bacterial culture from each treatment group was heated at 65°C for 30 minutes to ensure all vegetative cells were killed. The bacterial culture from each treatment group was then serially diluted and plated on BHIS agar plates supplemented with 0.1% taurocholic acid. The plates were incubated overnight, and the CFU counts for each treatment group were determined the following day.

Assay [16] deals with C. difficile 1082. Put plainly: MIC/MBC broth microdilution, C. difficile 1082. It is filed as cell-based, Clostridioides difficile. Here is the method:
as §1, §2

The subject of assay [17] is Bacteroides fragilis HM 714. Put plainly: MIC gut microflora, Bacteroides fragilis. To be noted: Bacteroides fragilis, HM714, 48 h. It is filed as cell-based. As to the method:
as §4

Assay [18] deals with clinical isolates of C. difficile. Put plainly: MIC against clinical isolates of C. difficile (summary). The note with it: range over isolates of Table 3. It is filed as cell-based, Clostridioides difficile. As to the method:
as §1, §2

The mark [19] stands for this setting: broth microdilution, Mueller-Hilton II broth, anaerobic 48 hours 37°C, visual, triplicate, repeated twice.
The mark [20] stands for this setting: broth microdilution, anaerobic 48 hours 37°C, visual, read-out: MIC.
Setting [21] is: plated on BHIS agar, read-out: MBC.
[22] abbreviates: aliquots of wells without growth plated on BHIS agar, repeated twice.

Where a name gives a salt, the structure may show the parent alone. Read-outs that look alike come from different tables or passages of the source. Where no end group is shown, it is not given here.

With `CN[C@H](CC(C)C)C(=O)N[C@H]1C(=O)N[C@@H](CC(N)=O)C(=O)N[C@H]2C(=O)N[C@H]3C(=O)N[C@H](C(=O)N[C@H](C(=O)O)c4cc(O)cc(O)c4-c4cc3ccc4O)[C@H](O)c3ccc(c(Cl)c3)Oc3cc2cc(c3O[C@@H]2O[C@H](CO)[C@@H](O)[C@H](O)[C@H]2O[C@H]2C[C@](C)(N)[C@H](O)[C@H](C)O2)Oc2ccc(cc2Cl)[C@H]1O` [Vancomycin, Vancomycin hydrochloride], the MBC in assay [1] (Clostridioides difficile, BAA1870) was 4 µM; in assay [2] (Clostridioides difficile, 1079) it was 2 µM; in assay [3] (BAA1870, pH 6), 4 µM; in assay [3] (BAA1870, pH 7) it was 8 µM; in assay [3] (BAA1870, pH 8), 16 µM; in assay [8] (ATCC630, pH 6) it was 2 µM. For the same compound, the MBC in [8] (ATCC630, pH 7) is 4 µM; in assay [8] (ATCC630, pH 8), 16 µM; in assay [10] (Clostridioides difficile, 1071), 2 µM; in assay [11] (Clostridioides difficile, ATCC43255), 4 µM; in [14] (Clostridioides difficile, ATCC630), 2 µM; in assay [16] (Clostridioides difficile, 1082) it was 2 µM. Further, the MIC in assay [1] (Clostridioides difficile, BAA1870, 48 h) was found to be 4 µM; in assay [2] (Clostridioides difficile, 1079, 48 h), 2 µM; in assay [3] (BAA1870, pH 6) it was 4 µM; in assay [3] (BAA1870, pH 7), 4 µM; in assay [3] (BAA1870, pH 8), 8 µM; in [4] (Lactobacillus gasseri, ATCC19992, 48 h) it was 1 µM. Also, the MIC was 1 µM in assay [4] (broth microdilution, MRS broth, 48 hours, read-out: MIC); over 64 µM in [5]; over 64 µM in [6]; 2 µM in assay [7] (Bifidobacterium longum, 48 h); 2 µM in assay [7] (broth microdilution, supplemented BHIS broth, 48 hours); 2 µM in assay [8] (ATCC630, pH 6). For the same compound, the MIC in assay [8] (ATCC630, pH 7) is 4 µM; in [8] (ATCC630, pH 8), 8 µM; in assay [10] (Clostridioides difficile, 1071, 48 h) it was 2 µM; in [11] (Clostridioides difficile, ATCC43255, 48 h), 4 µM; in assay [14] (Clostridioides difficile, ATCC630, 48 h), 2 µM; in assay [16] (Clostridioides difficile, 1082, 48 h), 2 µM. In assay [17], the MIC was found to be 64 µM. Also, the “reduction of bacterial burden” value in assay [9] was ~ 1.6 log10 CFU/mL. In addition, the “inhibition of toxin production (in words)” value in [12] is “did not inhibit toxin production”. For the same compound, the “Log CFU” value in assay [13] (inoculum 5 × 10^6, 1× MIC) amounted to 5.37; in [13] (inoculum 5 × 10^7, 1× MIC), 7.03. Besides, the Log reduction in [13] (inoculum 5 × 10^6, 1× MIC, vs no treatment) is reported as 1. Also, the “inhibition of spore formation (in words)” value in assay [15] is on record as “did not inhibit spore formation”.

In [14] (setting [19]), GRKKKRRQRRRYK [HIV-TAT] returned an MIC of over 64 µM.

Consider “GRKKKRRQRRRYK-O-CATACAATTCTC-NH 2 [rpoA-TAT mismatch]”, for which the MIC in assay [1] (setting [20]), in assay [11] (setting [20]) and in assay [14] (setting [19]) was over 32 µM each time. Besides, the MBC in [1] (setting [21]), in assay [11] (setting [21]) and in [14] (setting [22]) was over 32 µM in each case. For the same compound, the “MIC against clinical isolates of C. difficile” value in assay [18] was over 32 µM.

In turn, “KFFKFFKFFK-O-CATGGACAAAAC-NH2 [(KFF)3K-rpoA]” had an MBC in assay [14] (setting [22]) of 32 µM. For the same compound, the MIC in assay [14] (setting [19]) is recorded as 32 µM.

In turn, KKKKKKKK-O-CATGGACAAAAC-NH2 [K8-rpoA] showed an MBC in assay [14] (setting [22]) of 32 µM. In addition, the MIC in [14] (setting [19]) worked out at 32 µM.

Turning to “RFRRFRRFRRFRXB-O-CATGGACAAAAC-NH2 [(RFR)4XB -rpoA]”, the MBC in [14] (setting [22]) is 8 µM. In addition, the MIC in [14] (setting [19]) is 8 µM.

“RXRRXRRXRRXRXB-O-CATGGACAAAAC-NH2 [(RXR)4XB -rpoA]” registered an MBC in assay [14] (setting [22]) of 8 µM. This compound yielded an MIC in [14] (setting [19]) of 8 µM.
